In the test the target is T1, recombinant human PDK1 (Homo sapiens, UniProt O15530).
T1 construct: containing amino acids 51-556 of the human PDK1 enzyme; made in house; host or cells: Sf9 insect cells
T1 sequence (O15530 51-556): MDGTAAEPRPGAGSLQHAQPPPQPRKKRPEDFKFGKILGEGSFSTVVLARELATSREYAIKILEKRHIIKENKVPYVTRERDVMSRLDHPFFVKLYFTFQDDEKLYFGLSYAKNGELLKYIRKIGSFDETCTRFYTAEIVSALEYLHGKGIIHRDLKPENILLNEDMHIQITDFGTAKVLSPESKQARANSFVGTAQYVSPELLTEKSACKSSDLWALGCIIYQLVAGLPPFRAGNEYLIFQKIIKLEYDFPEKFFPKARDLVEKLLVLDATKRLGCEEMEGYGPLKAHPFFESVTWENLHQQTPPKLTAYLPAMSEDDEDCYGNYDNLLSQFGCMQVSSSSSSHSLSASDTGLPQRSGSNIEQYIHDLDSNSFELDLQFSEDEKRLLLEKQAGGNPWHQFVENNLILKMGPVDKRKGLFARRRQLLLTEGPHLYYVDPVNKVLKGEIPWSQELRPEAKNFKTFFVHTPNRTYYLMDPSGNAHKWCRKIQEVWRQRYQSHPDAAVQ
The test is described as follows: PDK1 IMAP fluorescence polarization assay (inhibition of peptide substrate phosphorylation). It is filed as biochemical. The note with it: Table 6; 10 nM PDK1 enzyme, 100 nM peptide substrate, 100 nM PIFtide, 2.5 uM ATP, 1.5 hours. In general terms: Fluorescence polarisation rises when a labelled molecule tumbles more slowly, as on binding a larger partner.

This note sets out measurements from patent US8623857B2, “N-phenyl imidazole carboxamide inhibitors of 3-phosphoinositide-dependent protein kinase-1” (Merck Sharp & Dohme Corp., priority 2010, dated 2014).

Broadly, the IC50 is the point on the concentration scale where inhibition reaches its midpoint.

Take `Nc1ccc(N2CCC[C@@H](N)C2)c(NC(=O)c2nc(Br)c[nH]2)c1` [Compound 16, N-[5-amino-2-(3(R)-amino-1-piperidinyl)phenyl]-4-bromo-1H-imidazole-2-carboxamide]: the IC50 was 0.051 to 0.25 µM.

For the compound `CN(C)CCOc1ccccc1NC(=O)c1nc(-c2c[nH]c3ccccc23)c[nH]1` [Compound 17, N-[2-[2-(dimethylamino)ethoxy]phenyl]-4-(1H-indol-3-yl)-1H-imidazole-2-carboxamide], the IC50 was in the range of 0.251 to 1 µM. As to `Cc1cc(-c2c[nH]c(C(=O)Nc3cccc(F)c3N3CCC(CN)CC3)n2)ccn1` [Compound 18, N-[2-[4-(aminomethyl)-1-piperidinyl]-3-fluorophenyl]-4-(2-methyl-4-pyridinyl)-1H-imidazole-2-carboxamide], the IC50 fell in the range of 0.001 to 0.05 µM. For `N[C@@H]1CCCN(c2c(F)cccc2NC(=O)c2nc(-c3ccnc(C(F)(F)F)c3)c[nH]2)C1` [Compound 19, N-[2-(3(R)-amino-1-piperidinyl)-3-fluorophenyl]-4-[2-(trifluoromethyl)-4-pyridinyl]-1H-imidazole-2-carboxamide], the IC50 fell in the range of 0.051 to 0.25 µM.

Take `Nc1cc(-c2c[nH]c(C(=O)Nc3cccc(F)c3N3CCC[C@@H](N)C3)n2)ccn1` [Compound 20, N-[2-(−3(R)-amino-1-piperidinyl)-3-fluorophenyl]-4-(2-amino-4-pyridinyl)-1H-imidazole-2-carboxamide]: the IC50 fell in the range of 0.001 to 0.05 µM. The same measure for `COc1cc(-c2c[nH]c(C(=O)Nc3cccc(F)c3N3CCC[C@@H](N)C3)n2)ccn1` [Compound 21, N-[2-(3(R)-amino-1-piperidinyl)-3-fluorophenyl]-4-(2-methoxy-4-pyridinyl)-1H-imidazole-2-carboxamide]: 0.051 to 0.25 µM; for `N[C@@H]1CCCN(c2c(F)cccc2NC(=O)c2nc(C3=CCOCC3)c[nH]2)C1` [Compound 22, N-[2-(3(R)-amino-1-piperidinyl)-3-fluorophenyl]-4-(3,6-dihydro-2h-pyran-4-yl)-1H-imidazole-2-carboxamide]: 0.251 to 1 µM. The figure for `N[C@@H]1CCCN(c2c(F)cccc2NC(=O)c2nc(-c3ccnc(C4CC4)c3)c[nH]2)C1` [Compound 23, N-[2-(3(R)-amino-1-piperidinyl)-3-fluorophenyl]-4-(2-cyclopropyl-4-pyridinyl)-1H-imidazole-2-carboxamide] is 0.051 to 0.25 µM; for `Cc1cc(-c2c[nH]c(C(=O)Nc3cccc(F)c3N3CCC[C@@H](N)C3)n2)cc(N)n1` [Compound 24, 4-(2-amino-6-methyl-4-pyridinyl)-N-[2-(3(R)-amino-1-piperidinyl)-3-fluorophenyl]-1H-imidazole-2-carboxamide] it is 0.001 to 0.05 µM.

`N[C@@H]1CCCN(c2c(F)cccc2NC(=O)c2nc(-c3ccnc(O)c3)c[nH]2)C1` [Compound 25, N-[2-(3(R)-amino-1-piperidinyl)-3-fluorophenyl]-4-(2-hydroxy-4-pyridinyl)-1H-imidazole-2-carboxamide]: the IC50 fell in the range of 1 to 5 µM.

As for `N[C@@H]1CCCN(c2c(F)cccc2NC(=O)c2nc(-c3ccnc(CO)c3)c[nH]2)C1` [Compound 26, N-[2-(3(R)-amino-1-piperidinyl)-3-fluorophenyl]-4-[2-(hydroxymethyl)-4-pyridinyl]-1H-imidazole-2-carboxamide], the IC50 was in the range of 0.001 to 0.05 µM. The same measure for `NCC1CCN(c2c(F)cccc2NC(=O)c2nc(-c3ccnc(N)c3)c[nH]2)CC1` [Compound 27, N-[2-[4-(aminomethyl)-1-piperidinyl]-3-fluorophenyl]-4-(2-amino-4-pyridinyl)-1H-imidazole-2-carboxamide]: 0.001 to 0.05 µM. With `NCC1CCN(c2c(NC(=O)c3nc(-c4ccnc(N)c4)c[nH]3)ccc(F)c2F)CC1` [Compound 28, N-[2-[4-(aminomethyl)-1-piperidinyl]-3,4-difluorophenyl]-4-(2-amino-4-pyridinyl)-1H-imidazole-2-carboxamide], the IC50 was in the range of 0.051 to 0.25 µM.
